Measurements reported in paper PMC11855207, “Synthesis and Evaluation of Aromatic A-Ring 23-Oxavitamin D3 Analogues as Hedgehog Pathway Inhibitors” (International Journal of Molecular Sciences, 2025).

tested on: Hh signaling pathway (Ptch mRNA) in C3H10T1/2 cells; assay: Ptch mRNA down-regulation (qPCR) in C3H10T1/2 cells; format: cell-based; settings: Mus musculus, C3H 10T1/2, read-out: Ptch IC50
Procedure: (§4) RNA isolation in C3H10T1/2 cells was performed in 24-well plates (50,000 cells plated; TRIZOL Reagent); in ASZ001, cells were done in 35 mm dishes (300,000 cells plated; TRIZOL Reagent). cDNA synthesis was performed utilizing the SweScript All-in-One RT SuperMix Kit (Servicebio, Wuhan, China) per the manufacturer’s instructions on a BioRad S1000 Thermal Cycler (Hercules, CA, USA). qPCR (Hh signaling pathway and VDR) analysis of target genes was performed on Step OnePlus (ABI) using the Taqman Gene Expression Assays [18, 29]: mouse ActB (Mm00607939_s1), mouse GLI1 (Mm00494645_ml), mouse PTCH1(Mm00436026_m1), and mouse CYP24A1 (Mm00487244_ml). Relative gene expression levels were computed via the ΔΔCt method. ActinB mRNA expression levels of all samples were normalized to DMSO control ActinB mRNA levels (vehicle; set at 1.00). […] The mRNA expression levels from drug-treated samples were compared to OHCs levels (Gli1, PTCH) and DMSO control (Cyp24A1).

Q: For `C=C1CC[C@H](O)C/C1=C/C=C1\CCC[C@]2(C)[C@@H]([C@H](C)CCCC(C)C)CC[C@@H]12` [VD3, Vitamin D3], which IC50 is on record?
A: 3.3 ± 0.4 µM

same assay, conditions: Mus musculus, C3H 10T1/2; C3H10T1/2 cells; mean ± SEM; read-out: Ptch IC50

Q: For `CC(C)COC[C@@H](C)[C@H]1CC[C@H]2[C@@H](OC(=O)c3cccc(O)c3)CCC[C@]12C` [Compound 3i], which IC50 is on record?
A: 5.6 ± 0.6 µM

tested on: Hh signaling pathway (Gli1 mRNA) in C3H10T1/2 cells; assay: Gli1 mRNA down-regulation (qPCR) in OHC-stimulated C3H10T1/2 cells; format: cell-based, mouse; settings: Mus musculus, C3H 10T1/2, 5 μM with OHCs 5 μM, 24 h, relative Gli1 mRNA levels compared to OHCs (set to 100%)
Procedure: (§1) The VD3 analogues were initially assessed for their ability to inhibit the Hh signaling pathway by evaluating the effects on endogenous Gli1 mRNA levels at a single concentration (5 μM) co-administration of oxysterols (OHCs; 20(S)-hydroxycholesterol, 22(S)-hydroxycholesterol at 5 μM each) in C3H10T1/2 cells, an Hh-dependent mouse embryonic fibroblast (MEF) cell line. […] VD3 derivatives may retain some VDR agonistic activity, thereby compromising the selectivity of these compounds as Hh inhibitors. The selectivity profile of the analogues for Hh inhibition, compared to typical VDR activation, was assessed by measuring the ability to up-regulate Cyp24a1 mRNA levels in the same cellular system and by evaluating their binding to VDR using a fluorescence polarization-based competition assay (Table 1).
(§2) Mouse embryonic fibroblast cell line (C3H10T1/2, wild-type, VDR^−/−, SuFu^−/−), mouse keratinocyte cell line (ASZ001), and human embryonic kidney cell line (HEK293T) were purchased from China Center for Type Culture Collection (CCTCC; Wuhan, Hubei, China) and cultured under standard protocols. […] Therefore, they can be used to assess the inhibitory strength of the Hh signaling and the selectivity of the VDR signaling. VDR^−/− and SuFu^−/− C3H10T1/2 cells were used to study compounds selectivity for Hh and VDR signaling. If compounds regulate Hh signaling independently of VDR, their ability to down-regulate Gli1 mRNA expression should be abolished in SuFu^−/− C3H10T1/2 cells. […] The loss of Ptch in ASZ001 cells […], so down-regulating Gli1 reflects direct Smo inhibition by the compound. Comparing results from ASZ001 and C3H10T1/2 cells highlights the compound’s inhibition of the Hh signaling pathway.
(§3) RNA isolation in C3H10T1/2 cells was performed in 24-well plates (50,000 cells plated; TRIZOL Reagent); in ASZ001, cells were done in 35 mm dishes (300,000 cells plated; TRIZOL Reagent). cDNA synthesis was performed utilizing the SweScript All-in-One RT SuperMix Kit (Servicebio, Wuhan, China) per the manufacturer’s instructions on a BioRad S1000 Thermal Cycler (Hercules, CA, USA). qPCR (Hh signaling pathway and VDR) analysis of target genes was performed on Step OnePlus (ABI) using the Taqman Gene Expression Assays: mouse ActB (Mm00607939_s1), mouse GLI1 (Mm00494645_ml), mouse PTCH1(Mm00436026_m1), and mouse CYP24A1 (Mm00487244_ml). Relative gene expression levels were computed via the ΔΔCt method. ActinB mRNA expression levels of all samples were normalized to DMSO control ActinB mRNA levels (vehicle; set at 1.00). […] The mRNA expression levels from drug-treated samples were compared to OHCs levels (Gli1, PTCH) and DMSO control (Cyp24A1).

Q: For `CC(C)COC[C@@H](C)[C@H]1CC[C@H]2[C@@H](OC(=O)c3cccc(O)c3)CCC[C@]12C` [Compound 3i], which mrna remaining at 5 µM is on record?
A: 6.1 ± 1.1%

Q: With `C=C1CC[C@H](O)C/C1=C/C=C1\CCC[C@]2(C)[C@@H]([C@H](C)CCCC(C)C)CC[C@@H]12` [VD3, Vitamin D3] as the compound, how does the mrna remaining at 5 µM read?
A: 32.5 ± 0.6%

same assay, conditions: Mus musculus, C3H 10T1/2, mean ± SEM

Q: For `CC(C)COC[C@@H](C)[C@H]1CC[C@H]2[C@@H](OC(=O)c3cccc(O)c3)CCC[C@]12C` [Compound 3i], which IC50 is on record?
A: 2.3 ± 0.7 µM

Q: How did the IC50 turn out when `C=C1CC[C@H](O)C/C1=C/C=C1\CCC[C@]2(C)[C@@H]([C@H](C)CCCC(C)C)CC[C@@H]12` [VD3, Vitamin D3] was run?
A: 4.2 ± 0.4 µM

tested on: ASZ001 cells; assay: Anti-proliferation (MTS) in ASZ001 cells; format: cell-based; settings: Mus musculus, 48 h incubation, mean ± SEM

Q: How did the GI50 turn out when `CC(C)COC[C@@H](C)[C@H]1CC[C@H]2[C@@H](OC(=O)c3cccc(O)c3)CCC[C@]12C` [Compound 3i] was run?
A: > 20 µM

Q: With `C=C1CC[C@H](O)C/C1=C/C=C1\CCC[C@]2(C)[C@@H]([C@H](C)CCCC(C)C)CC[C@@H]12` [VD3, Vitamin D3] as the compound, how does the GI50 read?
A: 15.6 ± 1.7 µM

tested on: primary Ptch-CKO MB cells; assay: Anti-proliferation (MTS) in primary Ptch-CKO MB cells; format: cell-based; settings: Mus musculus, 48 h incubation, mean ± SEM
Procedure: Ptch-CKO MB cells, derived from a conditional Patched knockout mouse, lack Ptch-like ASZ001 cells. Consequently, the inhibitory effect of the compound on Ptch-CKO MB cells directly reflects its suppression of the canonical Hh signaling pathway. Cell viability was assessed by MTS proliferation assay kit (Promega, Madison, WI, USA) according to the manufacturer’s protocol. Culture conditions and experimental protocols to determine GI50 values in the primary murine Ptch-CKO MB cells were as previously described.

Q: With `CC(C)COC[C@@H](C)[C@H]1CC[C@H]2[C@@H](OC(=O)c3cccc(O)c3)CCC[C@]12C` [Compound 3i] as the compound, how does the GI50 read?
A: 8.1 ± 1.1 µM

Q: Which GI50 does the source give for `C=C1CC[C@H](O)C/C1=C/C=C1\CCC[C@]2(C)[C@@H]([C@H](C)CCCC(C)C)CC[C@@H]12` [VD3, Vitamin D3] here?
A: 6.4 ± 0.7 µM

tested on: Hh signaling pathway (Gli1 mRNA) in ASZ001 cells; assay: Gli1 mRNA down-regulation (qPCR) in ASZ001 cells; format: cell-based; settings: Mus musculus, ASZ001, read-out: Gli1 IC50
Procedure: Mouse embryonic fibroblast cell line (C3H10T1/2, wild-type, VDR^−/−, SuFu^−/−), mouse keratinocyte cell line (ASZ001), and human embryonic kidney cell line (HEK293T) were purchased from China Center for Type Culture Collection (CCTCC; Wuhan, Hubei, China) and cultured under standard protocols [16]. […] The loss of Ptch in ASZ001 cells prevents Smo inhibition, so down-regulating Gli1 reflects direct Smo inhibition by the compound.
as §4

Q: How did the IC50 turn out when `C=C1CC[C@H](O)C/C1=C/C=C1\CCC[C@]2(C)[C@@H]([C@H](C)CCCC(C)C)CC[C@@H]12` [VD3, Vitamin D3] was run?
A: 2.1 ± 0.2 µM

same assay, conditions: Mus musculus; ASZ001 cells; mean ± SEM; read-out: Gli1 IC50

Q: With `CC(C)COC[C@@H](C)[C@H]1CC[C@H]2[C@@H](OC(=O)c3cccc(O)c3)CCC[C@]12C` [Compound 3i] as the compound, how does the IC50 read?
A: 5.2 ± 0.3 µM

target: T1, recombinant VDR (Homo sapiens, UniProt P11473); assay: VDR binding, fluorescence polarization-based competition assay (PolarScreen VDR Competitor Assay Red); settings: compounds evaluated at 100 μM
T1 construct: purchased Thermo Fisher Scientific
T1 sequence (P11473 1-427): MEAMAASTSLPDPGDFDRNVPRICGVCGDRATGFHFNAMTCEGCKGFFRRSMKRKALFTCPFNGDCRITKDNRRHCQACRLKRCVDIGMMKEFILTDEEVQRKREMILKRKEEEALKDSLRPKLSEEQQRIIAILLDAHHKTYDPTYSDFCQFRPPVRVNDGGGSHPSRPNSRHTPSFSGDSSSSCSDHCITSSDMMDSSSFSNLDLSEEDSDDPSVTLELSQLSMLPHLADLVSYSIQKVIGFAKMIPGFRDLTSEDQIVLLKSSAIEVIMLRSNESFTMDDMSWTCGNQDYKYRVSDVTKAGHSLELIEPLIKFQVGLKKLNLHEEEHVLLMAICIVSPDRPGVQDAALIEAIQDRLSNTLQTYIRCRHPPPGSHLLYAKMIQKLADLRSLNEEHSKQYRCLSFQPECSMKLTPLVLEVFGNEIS
Procedure: as §1
VDR binding assay was performed using a PolarScreen VDR Competitor Assay Red kit (Thermo Fisher Scientific, Carlsbad, CA, USA) per the manufacturer’s instructions. Compounds were evaluated at 100 μM in 2.5% final DMSO in triplicate. Calcitriol is utilized as a positive control for VDR binding.

Q: `CC(C)COC[C@@H](C)[C@H]1CC[C@H]2[C@@H](OC(=O)c3cccc(O)c3)CCC[C@]12C` [Compound 3i] was tested. Which “VDR Binding” value did it give?
A: >100 µM

Q: For `C=C1CC[C@H](O)C/C1=C/C=C1\CCC[C@]2(C)[C@@H]([C@H](C)CCCC(C)C)CC[C@@H]12` [VD3, Vitamin D3], which “VDR Binding” value is on record?
A: >100 µM

tested on: VDR signaling (Cyp24A1 mRNA) in ASZ001 cells; assay: Cyp24A1 mRNA expression (qPCR) in ASZ001 cells; format: cell-based; settings: Mus musculus, ASZ001, 24 h, read-out: Cyp24A1 mRNA levels relative to DMSO
Procedure: as §4

Q: Which fold induction at 5 µM does the source give for `C=C1CC[C@H](O)C/C1=C/C=C1\CCC[C@]2(C)[C@@H]([C@H](C)CCCC(C)C)CC[C@@H]12` [VD3, Vitamin D3] here?
A: 821 ± 26.3

same assay, conditions: Mus musculus; ASZ001 cells; 5 μM, 24 h; DMSO set to 1.0; read-out: Cyp24A1 mRNA levels relative to DMSO

Q: For `CC(C)COC[C@@H](C)[C@H]1CC[C@H]2[C@@H](OC(=O)c3cccc(O)c3)CCC[C@]12C` [Compound 3i], which fold induction at 5 µM is on record?
A: 2.3 ± 0.2

tested on: VDR signaling (Cyp24A1 mRNA) in C3H10T1/2 cells; assay: Cyp24A1 mRNA up-regulation (qPCR) in C3H10T1/2 cells; format: cell-based, mouse; settings: Mus musculus, C3H 10T1/2, 5 μM with OHCs 5 μM, 24 h, relative to DMSO (set to 1.0)
Procedure: as §1, §2, §3

Q: Which fold induction at 5 µM does the source give for `CC(C)COC[C@@H](C)[C@H]1CC[C@H]2[C@@H](OC(=O)c3cccc(O)c3)CCC[C@]12C` [Compound 3i] here?
A: 13.8 ± 1.4

Q: For `C=C1CC[C@H](O)C/C1=C/C=C1\CCC[C@]2(C)[C@@H]([C@H](C)CCCC(C)C)CC[C@@H]12` [VD3, Vitamin D3], which fold induction at 5 µM is on record?
A: 8350 ± 102
